Converted amounts (≈) assume the structure as drawn.
Assays:
[1] = test system: rhinovirus 1A; conditions: in vitro, cells infected with rhinovirus 1A; cited from earlier work
[2] = cited from earlier work
[3] = test system: Banzi virus; conditions: monkeys; cited from earlier work
[4] = test system: cutaneous metastatic melanoma; conditions: topical, under occlusion; cited from earlier work
[5] = test system: varicella zoster; conditions: in vitro, cells infected with varicella zoster; cited from earlier work
[6] = topical; cited from earlier work
[7] = cited from earlier work; remark: listed apart in the source
[8] = test system: primary genital herpes; conditions: guinea pigs, single dose; cited from earlier work
[9] = test system: a number of different tumor cell types; conditions: mice implanted with tumor cells; cited from earlier work
[10] = cited from earlier work; remark: listed apart in the source
[11] = aqueous solubility; conditions: pH 7.4, aqueous buffer
[12] = test system: isolated human mononuclear cells; conditions: cited from earlier work
[13] = test system: mouse spleen cell cultures; conditions: cited from earlier work
[14] = test system: Rift Valley Fever virus; conditions: monkeys; cited from earlier work
[15] = test system: respiratory syncytial virus; conditions: in vitro, cells infected with respiratory syncytial virus; cited from earlier work
[16] = test system: spleen, bone marrow, liver, peritoneal exudates and alveolar macrophages; conditions: in vitro; cited from earlier work
[17] = physchem; conditions: water

CC(C)Cn1cnc2c(N)nc3ccccc3c21 [imiquimod, 1-(2-methylpropyl)-1H-imidazo[4,5-c]quinolin-4-amine]
plaque reduction [1]: 50%
solubility in water and common organic solvents ([2]; free base form): almost insoluble
solubility at physiologic pH ([2]; physiologic pH): 1-2 μg/ml
efficacy against Banzi virus [3]: effective
treatment of cutaneous metastatic melanoma [4]: successfully treated
plaque reduction [5]: 50%
effect on contact allergy to dinitrochlorobenzene [6]: enhanced contact allergy
systemic toxicity ([7]; oral administration): significant systemic toxicity
skin irritation ([7]; topical administration of creams): significant skin irritation
treatment of primary genital herpes infections [8]: effectively treats
anti-tumor effect [9]: effective anti-tumor agent
systemic exposure ([10]; dermal administration): minimal
absorption ([10]; oral administration): rapidly absorbed
solubility [11]: 4 µM (≈ 0.961 µg/mL)
concentration of maximal interferon-alpha production [12]: 3 µM
concentration of maximum activity, induced proliferation [13]: 1 µg/mL
efficacy against Rift Valley Fever virus [14]: effective
plaque reduction [15]: 50%
time of cytokine induction after exposure [16]: 1 to 2 h
time of peak cytokine induction [16]: 8 h

CC(C)(C)CC(=O)OCC(=O)[C@@]12OC(C)(C)O[C@@H]1C[C@H]1[C@@H]3CCC4=CC(=O)C=C[C@]4(C)[C@@]3(F)[C@@H](O)C[C@@]12C [Triamcinolone hexacetonide]
solubility [17]: 3.75 µM (≈ 2 µg/mL)

From patent publication US8211906B1, “Method of inhibiting growth of neoplastic cells and inhibiting infection by administering an immune enhancer drug” (priority 2003, dated 2012)
